The experiment addresses T1, AAK1 (Homo sapiens, UniProt Q2M2I8).
T1 construct: HA; expressed in transfected cells; host or cells: HEK293F
Description: HEK281 cell-based assay (phospho-mu2 Western blot in transfected HEK293F cells). Conditions: 3 hours incubation, read-out: CBA IC50. The gist of the method:
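HEK293F cells co-transfected with full-length human AAK1/HA and Flag/AP2M1 were treated next day with 5 compound concentrations (3-fold dilutions) in DMEM+0.5% FBS for 3 hours at 37° C. Lysates were Western blotted for phospho-mu2, with total mu2 detected by anti-Flag.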

Some results are limits rather than exact numbers.

T1 sequence (Q2M2I8 1-863 isoform Q2M2I8-2): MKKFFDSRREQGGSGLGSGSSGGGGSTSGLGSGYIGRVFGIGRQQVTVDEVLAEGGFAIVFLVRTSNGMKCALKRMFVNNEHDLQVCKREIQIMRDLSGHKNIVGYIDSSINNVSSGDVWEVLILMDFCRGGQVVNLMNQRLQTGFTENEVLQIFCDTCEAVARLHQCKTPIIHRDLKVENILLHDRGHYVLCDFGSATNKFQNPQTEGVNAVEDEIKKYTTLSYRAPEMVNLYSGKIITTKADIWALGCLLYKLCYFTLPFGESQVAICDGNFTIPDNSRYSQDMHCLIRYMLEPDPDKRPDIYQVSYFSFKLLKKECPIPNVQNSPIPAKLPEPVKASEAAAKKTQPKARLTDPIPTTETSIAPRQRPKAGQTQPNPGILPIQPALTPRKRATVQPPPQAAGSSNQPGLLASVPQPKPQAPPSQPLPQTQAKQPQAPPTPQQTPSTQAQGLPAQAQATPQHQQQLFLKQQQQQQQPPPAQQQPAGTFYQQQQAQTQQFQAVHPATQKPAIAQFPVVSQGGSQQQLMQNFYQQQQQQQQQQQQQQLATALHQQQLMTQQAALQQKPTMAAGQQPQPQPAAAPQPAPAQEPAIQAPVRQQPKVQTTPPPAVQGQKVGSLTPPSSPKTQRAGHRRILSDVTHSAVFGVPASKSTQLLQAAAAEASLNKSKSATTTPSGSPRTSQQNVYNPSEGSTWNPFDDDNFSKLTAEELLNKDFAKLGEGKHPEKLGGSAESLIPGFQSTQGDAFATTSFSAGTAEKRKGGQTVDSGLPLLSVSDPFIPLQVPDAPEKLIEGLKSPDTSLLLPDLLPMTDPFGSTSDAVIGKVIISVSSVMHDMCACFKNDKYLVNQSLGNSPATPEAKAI

As for `CCOC(=O)N1CCC[C@H]1CNc1ccc2ncc(-c3ccncc3OC)n2n1` [(S)-ethyl 2-(((3-(3-methoxypyridin-4-yl)imidazo[1,2-b]pyridazin-6-yl)amino)methyl)pyrrolidine-1-carboxylate], the half-maximal inhibitory concentration (IC50) was at most 100 nM. As for `CCOC(=O)N1CCC[C@H]1CNc1ccc2ncc(-c3ccc(CN)cc3)n2n1` [(S)-ethyl 2-(((3-(4-(aminomethyl)phenyl)imidazo[1,2-b]pyridazin-6-yl)amino)methyl)pyrrolidine-1-carboxylate], the figure is at most 10 nM. Consider `CCOC(=O)N1CCC[C@H]1CNc1ccc2ncc(-c3ccncc3)n2n1` [(S)-ethyl 2-(((3-(pyridin-4-yl)imidazo[1,2-b]pyridazin-6-yl)amino)methyl)pyrrolidine-1-carboxylate], for which the IC50 was at most 100 nM.

As to `CCOC(=O)N1CCC[C@H]1CNc1ccc2ncc(Br)n2n1` [(S)-ethyl 2-(((3-bromoimidazo[1,2-b]pyridazin-6-yl)amino)methyl)pyrrolidine-1-carboxylate], the half-inhibitory concentration (IC50) is at most 100 nM. As to `CCOC(=O)N(C)[C@H]1CCN(c2ccc3ncc(-c4ccc(C)nc4OC)n3n2)C1` [(S)-ethyl (1-(3-(2-methoxy-6-methylpyridin-3-yl)imidazo[1,2-b]pyridazin-6-yl)pyrrolidin-3-yl)(methyl)carbamate], the half-maximal inhibitory concentration (IC50) was at most 100 nM. As for `COc1ccccc1-c1cnc2ccc(NC[C@@H]3CCCN3C(=O)OC(C)C)nn12` [(S)-isopropyl 2-(((3-(2-methoxyphenyl)imidazo[1,2-b]pyridazin-6-yl)amino)methyl)pyrrolidine-1-carboxylate], the figure is at most 10 nM. With `COc1cnccc1-c1cnc2ccc(NC[C@@H]3CCCN3C(=O)OC(C)C)nn12` [(S)-isopropyl 2-(((3-(3-methoxypyridin-4-yl)imidazo[1,2-b]pyridazin-6-yl)amino)methyl)pyrrolidine-1-carboxylate] the figure was at most 10 nM; with `CC(C)OC(=O)N1CCC[C@H]1CNc1ccc2ncc(-c3ccc(CN)cc3)n2n1` [(S)-isopropyl 2-(((3-(4-(aminomethyl)phenyl)imidazo[1,2-b]pyridazin-6-yl)amino)methyl)pyrrolidine-1-carboxylate], at most 10 nM.

On to `C=C(C)c1cnc2ccc(NC[C@@H]3CCCN3C(=O)OC(C)C)nn12` [(S)-isopropyl 2-(((3-(prop-1-en-2-yl)imidazo[1,2-b]pyridazin-6-yl)amino)methyl)pyrrolidine-1-carboxylate], for which the IC50 is at most 100 nM. With `CC(C)OC(=O)N1CCC[C@H]1CNc1ccc2ncc(Br)n2n1` [(S)-isopropyl 2-(((3-bromoimidazo[1,2-b]pyridazin-6-yl)amino)methyl)pyrrolidine-1-carboxylate] the figure was at most 1000 nM; with `CC(C)OC(=O)N1CCC[C@H]1CNc1ccc2ncc(C3CC3)n2n1` [(S)-isopropyl 2-(((3-cyclopropylimidazo[1,2-b]pyridazin-6-yl)amino)methyl)pyrrolidine-1-carboxylate], at most 1000 nM. With `C=Cc1cnc2ccc(NC[C@@H]3CCCN3C(=O)OC(C)C)nn12` [(S)-isopropyl 2-(((3-vinylimidazo[1,2-b]pyridazin-6-yl)amino)methyl)pyrrolidine-1-carboxylate] the figure was at most 10 nM; with `CC(C)OC(=O)N(C)CCNc1ccc2ncc(-c3ccc([C@@H]4CCCN4)cc3)n2n1` [(S)-isopropyl methyl(2-((3-(4-(pyrrolidin-2-yl)phenyl)imidazo[1,2-b]pyridazin-6-yl)amino)ethyl)carbamate], at most 100 nM; with `COC(=O)N1CCC[C@H]1CNc1ccc2ncc(-c3ccccc3OC)n2n1` [(S)-methyl 2-(((3-(2-methoxyphenyl)imidazo[1,2-b]pyridazin-6-yl)amino)methyl)pyrrolidine-1-carboxylate], at most 100 nM. Regarding `COC(=O)N1CCC[C@H]1CNc1ccc2ncc(-c3ccncc3OC)n2n1` [(S)-methyl 2-(((3-(3-methoxypyridin-4-yl)imidazo[1,2-b]pyridazin-6-yl)amino)methyl)pyrrolidine-1-carboxylate], the IC50 was at most 100 nM.

As for `COC(=O)N1CCC[C@H]1CNc1ccc2ncc(-c3ccc(CN)cc3)n2n1` [(S)-methyl 2-(((3-(4-(aminomethyl)phenyl)imidazo[1,2-b]pyridazin-6-yl)amino)methyl)pyrrolidine-1-carboxylate], the IC50 is at most 100 nM. With `COC(=O)N1CCC[C@H]1CNc1ccc2ncc(Br)n2n1` [(S)-methyl 2-(((3-bromoimidazo[1,2-b]pyridazin-6-yl)amino)methyl)pyrrolidine-1-carboxylate] the figure was at most 1000 nM; with `CC(C)(C)COC(=O)N1CCC[C@H]1CNc1ccc2ncc(Br)n2n1` [(S)-neopentyl 2-(((3-bromoimidazo[1,2-b]pyridazin-6-yl)amino)methyl)pyrrolidine-1-carboxylate], at most 100 nM. With `COc1ccccc1-c1cnc2ccc(NC[C@@H]3CCCN3C(=O)OC(C)(C)C)nn12` [(S)-tert-butyl 2-(((3-(2-methoxyphenyl)imidazo[1,2-b]pyridazin-6-yl)amino)methyl)pyrrolidine-1-carboxylate], the IC50 is at most 10 nM.

Regarding `COc1cnccc1-c1cnc2ccc(NC[C@@H]3CCCCN3C(=O)OC(C)(C)C)nn12` [(S)-tert-butyl 2-(((3-(3-methoxypyridin-4-yl)imidazo[1,2-b]pyridazin-6-yl)amino)methyl)piperidine-1-carboxylate], the IC50 is at most 100 nM. As for `CC(C)(C)OC(=O)N1CCCC[C@H]1CNc1ccc2ncc(-c3ccc(CN)cc3)n2n1` [(S)-tert-butyl 2-(((3-(4-(aminomethyl)phenyl)imidazo[1,2-b]pyridazin-6-yl)amino)methyl)piperidine-1-carboxylate], the figure is at most 10 nM; as for `CC(C)(C)OC(=O)N1CCCC[C@H]1CNc1ccc2ncc(-c3ccncc3)n2n1` [(S)-tert-butyl 2-(((3-(pyridin-4-yl)imidazo[1,2-b]pyridazin-6-yl)amino)methyl)piperidine-1-carboxylate], at most 100 nM; as for `CC(C)(C)OC(=O)N1CCC[C@H]1CNc1ccc2ncc(C(F)(F)F)n2n1` [(S)-tert-butyl 2-(((3-(trifluoromethyl)imidazo[1,2-b]pyridazin-6-yl)amino)methyl)pyrrolidine-1-carboxylate], at most 100 nM.

For the molecule `CC(C)(C)OC(=O)N1CCC[C@H]1CNc1ccc2ncc(Br)n2n1` [(S)-tert-butyl 2-(((3-bromoimidazo[1,2-b]pyridazin-6-yl)amino)methyl)pyrrolidine-1-carboxylate], the IC50 was at most 100 nM. As to `CC(C)(C)OC(=O)N1CCC[C@H]1CNc1ccc2ncc(Cl)n2n1` [(S)-tert-butyl 2-(((3-chloroimidazo[1,2-b]pyridazin-6-yl)amino)methyl)pyrrolidine-1-carboxylate], the IC50 is at most 100 nM. With `CCc1cnc2ccc(NC[C@@H]3CCCN3C(=O)OC(C)(C)C)nn12` [(S)-tert-butyl 2-(((3-ethylimidazo[1,2-b]pyridazin-6-yl)amino)methyl)pyrrolidine-1-carboxylate] the figure was at most 100 nM. For the molecule `CC(C)(C)OC(=O)N1CCC[C@H]1CNc1ccc2ncc(I)n2n1` [(S)-tert-butyl 2-(((3-iodoimidazo[1,2-b]pyridazin-6-yl)amino)methyl)pyrrolidine-1-carboxylate], the half-maximal inhibitory concentration (IC50) was at most 10 nM. For the molecule `COc1cnccc1-c1cnc2ccc(NC[C@@H]3CCN(C(=O)OC(C)(C)C)C3)nn12` [(S)-tert-butyl 3-(((3-(3-methoxypyridin-4-yl)imidazo[1,2-b]pyridazin-6-yl)amino)methyl)pyrrolidine-1-carboxylate], the IC50 was at most 1000 nM. As for `CC(C)(C)OC(=O)N1CC[C@@H](CNc2ccc3ncc(-c4ccc(CN)cc4)n3n2)C1` [(S)-tert-butyl 3-(((3-(4-(aminomethyl)phenyl)imidazo[1,2-b]pyridazin-6-yl)amino)methyl)pyrrolidine-1-carboxylate], the IC50 is at most 100 nM. On to `CC(C)(C)OC(=O)N1CC[C@@H](CNc2ccc3ncc(Br)n3n2)C1` [(S)-tert-butyl 3-(((3-bromoimidazo[1,2-b]pyridazin-6-yl)amino)methyl)pyrrolidine-1-carboxylate], for which the 50% inhibitory concentration (IC50) is at most 1000 nM. As for `CCCCNc1ccc2ncc(-c3ccc4cnccc4c3)n2n1` [Butyl-(3-isoquinolin-6-yl-imidazo[1,2-b]pyridazin-6-yl)amine], the figure is at most 100 nM; as for `CCOC(=O)CCCNc1ccc2ncc(-c3ccc(C(C)=O)s3)n2n1` [Ethyl 4-((3-(5-acetylthiophen-2-yl)imidazo[1,2-b]pyridazin-6-yl)amino)butanoate], at most 100 nM.

As to `CN(CCNc1ccc2ncc(-c3ccc(CN)cc3)n2n1)c1ccccc1` [N1-(3-(4-(aminomethyl)phenyl)imidazo[1,2-b]pyridazin-6-yl)-N2-methyl-N2-phenylethane-1,2-diamine], the half-inhibitory concentration (IC50) is at most 100 nM. With `CN(CCCNc1ccc2ncc(-c3ccc(CN)cc3)n2n1)c1ccccc1` [N1-(3-(4-(aminomethyl)phenyl)imidazo[1,2-b]pyridazin-6-yl)-N3-methyl-N3-phenylpropane-1,3-diamine] the figure was at most 100 nM; with `CN(CCCNc1ccc2ncc(-c3ccc(CN)s3)n2n1)c1ccccc1` [N1-(3-(5-(aminomethyl)thiophen-2-yl)imidazo[1,2-b]pyridazin-6-yl)-N3-methyl-N3-phenylpropane-1,3-diamine], at most 1000 nM. As for `CC(C)(C)CCNc1ccc2ncc(-c3ccc(CNCCN)cc3)n2n1` [N1-(4-(6-((3,3-dimethylbutyl)amino)imidazo[1,2-b]pyridazin-3-yl)benzyl)ethane-1,2-diamine], the figure is at most 1000 nM. With `CCCCNc1ccc2ncc(-c3ccc(CNCCN)cc3)n2n1` [N1-(4-(6-(butylamino)imidazo[1,2-b]pyridazin-3-yl)benzyl)ethane-1,2-diamine] the figure was at most 1000 nM; with `CCCCNc1ccc2ncc(-c3ccc(CNCCCN)cc3)n2n1` [N1-(4-(6-(butylamino)imidazo[1,2-b]pyridazin-3-yl)benzyl)propane-1,3-diamine], at most 1000 nM.

A word on the IC50: it is the concentration needed to halve the response being measured.
